Experimental data: PMC6437697 (Journal of Medicinal Chemistry, 2019)

Tests used:
Assay in all cases: KINOMEscan
Format in all cases: binding
Conditions in all cases: read-out: % control activity remaining
TAK1 = target: T1, TAK1 (Homo sapiens, UniProt O43318)
T1 construct: purchased Eurofins DiscoverX KINOMEscan
T1 sequence (O43318 1-606): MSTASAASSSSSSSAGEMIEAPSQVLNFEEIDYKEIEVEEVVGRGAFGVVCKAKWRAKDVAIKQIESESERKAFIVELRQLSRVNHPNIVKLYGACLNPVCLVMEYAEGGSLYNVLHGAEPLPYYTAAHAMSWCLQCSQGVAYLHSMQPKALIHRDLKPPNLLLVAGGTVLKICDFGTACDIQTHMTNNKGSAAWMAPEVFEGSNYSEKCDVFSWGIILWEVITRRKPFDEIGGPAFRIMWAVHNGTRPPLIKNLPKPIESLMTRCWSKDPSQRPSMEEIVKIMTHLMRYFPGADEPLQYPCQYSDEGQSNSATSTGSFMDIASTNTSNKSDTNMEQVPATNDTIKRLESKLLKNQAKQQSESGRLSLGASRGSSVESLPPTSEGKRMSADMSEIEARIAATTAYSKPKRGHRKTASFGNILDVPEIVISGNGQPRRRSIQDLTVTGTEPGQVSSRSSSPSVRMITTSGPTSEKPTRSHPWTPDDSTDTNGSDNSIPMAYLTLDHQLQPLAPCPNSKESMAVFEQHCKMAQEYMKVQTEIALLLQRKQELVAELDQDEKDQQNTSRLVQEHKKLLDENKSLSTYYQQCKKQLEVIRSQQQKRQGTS

ERBB3 = target: T2, ERBB3 (Homo sapiens, UniProt P21860)
T2 construct: purchased Eurofins DiscoverX KINOMEscan
T2 sequence (P21860 20-1342): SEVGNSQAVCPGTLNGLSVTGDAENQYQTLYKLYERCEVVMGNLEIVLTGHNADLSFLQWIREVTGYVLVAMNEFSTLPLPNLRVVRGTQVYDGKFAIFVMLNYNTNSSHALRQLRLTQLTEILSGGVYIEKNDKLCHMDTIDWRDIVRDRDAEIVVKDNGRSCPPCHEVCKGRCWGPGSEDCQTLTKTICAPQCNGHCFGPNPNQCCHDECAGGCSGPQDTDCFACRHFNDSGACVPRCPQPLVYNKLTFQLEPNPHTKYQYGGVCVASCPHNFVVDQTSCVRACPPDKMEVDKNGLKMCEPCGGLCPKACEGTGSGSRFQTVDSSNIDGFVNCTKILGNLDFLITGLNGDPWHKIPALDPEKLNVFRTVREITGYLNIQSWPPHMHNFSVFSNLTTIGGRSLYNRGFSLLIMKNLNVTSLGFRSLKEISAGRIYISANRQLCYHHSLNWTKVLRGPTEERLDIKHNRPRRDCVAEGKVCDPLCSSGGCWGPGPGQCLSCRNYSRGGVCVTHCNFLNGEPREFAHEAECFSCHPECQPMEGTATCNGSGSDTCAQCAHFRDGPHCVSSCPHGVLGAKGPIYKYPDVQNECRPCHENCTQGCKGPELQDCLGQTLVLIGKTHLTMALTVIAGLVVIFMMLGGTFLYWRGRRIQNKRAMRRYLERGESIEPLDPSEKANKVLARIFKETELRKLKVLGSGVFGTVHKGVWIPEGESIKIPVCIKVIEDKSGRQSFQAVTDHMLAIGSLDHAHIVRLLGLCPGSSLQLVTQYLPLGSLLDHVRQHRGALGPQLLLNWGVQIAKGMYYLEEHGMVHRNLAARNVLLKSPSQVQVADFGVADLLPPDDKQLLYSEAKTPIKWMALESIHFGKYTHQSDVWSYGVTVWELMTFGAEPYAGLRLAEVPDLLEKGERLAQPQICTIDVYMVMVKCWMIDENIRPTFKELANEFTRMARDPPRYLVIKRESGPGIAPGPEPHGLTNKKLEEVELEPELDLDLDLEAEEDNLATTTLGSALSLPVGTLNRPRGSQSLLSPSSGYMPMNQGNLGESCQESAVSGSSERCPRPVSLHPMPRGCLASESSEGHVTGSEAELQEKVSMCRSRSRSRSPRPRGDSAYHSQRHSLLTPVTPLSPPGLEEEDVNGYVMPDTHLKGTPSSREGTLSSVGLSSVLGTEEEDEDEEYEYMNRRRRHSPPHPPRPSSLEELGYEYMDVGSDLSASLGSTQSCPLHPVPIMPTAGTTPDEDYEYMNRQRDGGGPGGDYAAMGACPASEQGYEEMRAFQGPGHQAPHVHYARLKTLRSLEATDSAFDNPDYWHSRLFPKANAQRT

DDR2 = target: T3, DDR2 (Homo sapiens, UniProt Q16832)
T3 construct: purchased Eurofins DiscoverX KINOMEscan
T3 sequence (Q16832 22-855): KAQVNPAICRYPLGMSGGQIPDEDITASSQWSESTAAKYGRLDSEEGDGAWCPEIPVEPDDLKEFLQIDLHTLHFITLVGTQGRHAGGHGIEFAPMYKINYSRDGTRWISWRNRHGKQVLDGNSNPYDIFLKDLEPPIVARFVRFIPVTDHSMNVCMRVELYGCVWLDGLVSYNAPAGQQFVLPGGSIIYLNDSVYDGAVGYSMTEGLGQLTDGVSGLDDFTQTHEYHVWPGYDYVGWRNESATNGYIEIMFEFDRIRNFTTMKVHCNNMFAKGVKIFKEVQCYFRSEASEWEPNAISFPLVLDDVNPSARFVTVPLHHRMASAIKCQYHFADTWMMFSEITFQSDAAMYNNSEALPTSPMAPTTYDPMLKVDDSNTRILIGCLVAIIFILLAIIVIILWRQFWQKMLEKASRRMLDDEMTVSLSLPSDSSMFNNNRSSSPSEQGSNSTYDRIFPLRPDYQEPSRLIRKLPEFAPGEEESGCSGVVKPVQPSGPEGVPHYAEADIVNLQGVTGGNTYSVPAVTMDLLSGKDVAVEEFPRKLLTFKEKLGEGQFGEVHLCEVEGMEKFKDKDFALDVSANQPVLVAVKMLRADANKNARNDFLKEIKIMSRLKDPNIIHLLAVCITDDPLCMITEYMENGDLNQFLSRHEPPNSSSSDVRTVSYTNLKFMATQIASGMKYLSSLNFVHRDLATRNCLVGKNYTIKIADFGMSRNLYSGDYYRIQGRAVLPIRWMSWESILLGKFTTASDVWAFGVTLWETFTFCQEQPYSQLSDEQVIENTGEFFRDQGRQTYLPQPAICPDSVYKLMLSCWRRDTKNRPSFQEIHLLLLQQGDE

ERK2 = target: T4, ERK2 (Homo sapiens, UniProt P28482)
T4 construct: purchased Eurofins DiscoverX KINOMEscan
T4 sequence (P28482 whole entry): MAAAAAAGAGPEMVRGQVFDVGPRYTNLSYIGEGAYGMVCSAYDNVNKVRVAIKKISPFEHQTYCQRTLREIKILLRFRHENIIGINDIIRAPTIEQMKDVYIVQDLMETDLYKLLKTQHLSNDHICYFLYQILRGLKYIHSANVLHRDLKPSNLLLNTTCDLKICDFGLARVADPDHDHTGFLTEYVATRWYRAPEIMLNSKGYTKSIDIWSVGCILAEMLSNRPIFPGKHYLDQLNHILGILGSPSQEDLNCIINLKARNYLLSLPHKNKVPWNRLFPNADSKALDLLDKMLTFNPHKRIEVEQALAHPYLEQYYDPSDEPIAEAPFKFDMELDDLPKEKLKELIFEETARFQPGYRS

RIOK1 = target: T5, RIOK1 (Homo sapiens, UniProt Q9BRS2)
T5 construct: purchased Eurofins DiscoverX KINOMEscan
T5 sequence (Q9BRS2 1-568): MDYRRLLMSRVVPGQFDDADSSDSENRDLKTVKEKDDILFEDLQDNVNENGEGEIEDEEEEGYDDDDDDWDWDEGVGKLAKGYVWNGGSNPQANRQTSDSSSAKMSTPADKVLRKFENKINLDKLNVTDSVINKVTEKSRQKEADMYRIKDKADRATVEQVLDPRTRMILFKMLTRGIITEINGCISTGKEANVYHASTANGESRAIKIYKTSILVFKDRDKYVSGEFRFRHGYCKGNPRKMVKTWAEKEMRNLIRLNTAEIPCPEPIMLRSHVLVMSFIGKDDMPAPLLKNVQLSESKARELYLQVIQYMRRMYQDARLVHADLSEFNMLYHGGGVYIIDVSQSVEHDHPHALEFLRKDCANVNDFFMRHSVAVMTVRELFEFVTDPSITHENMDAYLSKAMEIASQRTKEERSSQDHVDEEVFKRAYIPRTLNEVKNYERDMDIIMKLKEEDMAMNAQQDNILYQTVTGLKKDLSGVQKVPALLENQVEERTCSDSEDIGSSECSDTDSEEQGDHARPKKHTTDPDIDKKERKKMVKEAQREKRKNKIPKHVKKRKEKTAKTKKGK

BUB1 = target: T6, BUB1 (Homo sapiens, UniProt O43683)
T6 construct: purchased Eurofins DiscoverX KINOMEscan
T6 sequence (O43683 whole entry): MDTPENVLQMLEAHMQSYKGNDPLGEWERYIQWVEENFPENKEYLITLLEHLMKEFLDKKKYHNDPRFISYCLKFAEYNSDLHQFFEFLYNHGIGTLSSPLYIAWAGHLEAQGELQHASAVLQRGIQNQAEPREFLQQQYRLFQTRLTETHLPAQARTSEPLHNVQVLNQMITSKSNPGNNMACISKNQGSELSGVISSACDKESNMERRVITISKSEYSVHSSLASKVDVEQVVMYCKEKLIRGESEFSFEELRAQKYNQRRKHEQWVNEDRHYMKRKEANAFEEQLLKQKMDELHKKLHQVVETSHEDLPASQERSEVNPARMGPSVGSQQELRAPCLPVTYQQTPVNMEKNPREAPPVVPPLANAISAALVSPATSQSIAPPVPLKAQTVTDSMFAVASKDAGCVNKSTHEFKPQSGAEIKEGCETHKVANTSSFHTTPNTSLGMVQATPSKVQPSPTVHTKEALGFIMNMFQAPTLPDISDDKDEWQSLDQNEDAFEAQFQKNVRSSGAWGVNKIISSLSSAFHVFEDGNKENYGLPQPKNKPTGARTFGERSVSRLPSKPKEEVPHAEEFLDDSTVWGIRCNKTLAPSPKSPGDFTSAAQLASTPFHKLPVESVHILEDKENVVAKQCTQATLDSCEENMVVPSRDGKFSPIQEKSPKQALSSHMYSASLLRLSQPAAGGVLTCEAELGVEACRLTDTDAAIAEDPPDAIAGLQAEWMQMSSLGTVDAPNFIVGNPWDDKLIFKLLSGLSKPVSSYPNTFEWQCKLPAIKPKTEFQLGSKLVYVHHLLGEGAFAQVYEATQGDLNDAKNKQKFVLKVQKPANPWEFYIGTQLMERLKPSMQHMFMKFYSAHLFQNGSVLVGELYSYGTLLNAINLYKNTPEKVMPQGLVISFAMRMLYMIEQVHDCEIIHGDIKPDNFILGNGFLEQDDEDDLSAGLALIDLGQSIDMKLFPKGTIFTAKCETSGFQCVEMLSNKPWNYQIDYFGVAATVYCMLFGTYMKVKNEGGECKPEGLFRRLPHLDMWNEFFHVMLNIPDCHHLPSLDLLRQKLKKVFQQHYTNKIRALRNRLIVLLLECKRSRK

CN1CCC(CNc2cc(Cl)nn3c(-c4cc5nc(Nc6ccccc6)[nH]c5cc4F)cnc23)CC1 [compound 31, 6-Chloro-3-(6-fluoro-2-(phenylamino)-1H-benzo[d]imidazol-5-yl)-N-((1-methylpiperidin-4-yl)methyl)imidazo[1,2-b]pyridazin-8-amine]
remaining binding at 1 µM (TAK1): 65%
remaining binding at 1 µM (ERBB3): 71%
remaining binding at 1 µM (DDR2): 100%
remaining binding at 1 µM (ERK2): 99%
remaining binding at 1 µM (RIOK1): 88%
remaining binding at 1 µM (BUB1): 59%

O=C(CN1CCOCC1)N[C@H]1CC[C@H](Nc2cc(Cl)nn3c(-c4ccc5[nH]ncc5c4)cnc23)CC1 [compound 26]
remaining binding at 1 µM (TAK1): 47%
remaining binding at 1 µM (ERBB3): 99%
remaining binding at 1 µM (DDR2): 98%
remaining binding at 1 µM (ERK2): 93%
remaining binding at 1 µM (RIOK1): 33%
remaining binding at 1 µM (BUB1): 58%

Clc1cc(NCC2CC2)c2ncc(-c3ccc4[nH]ncc4c3)n2n1 [compound 2, 6-Chloro-N-(cyclopropylmethyl)-3-(1H-indazol-5-yl)imidazo[1,2-b]pyridazin-8-amine]
remaining binding at 1 µM (TAK1): 91%
remaining binding at 1 µM (ERBB3): 96%
remaining binding at 1 µM (DDR2): 86%
remaining binding at 1 µM (ERK2): 92%
remaining binding at 1 µM (RIOK1): 35%
remaining binding at 1 µM (BUB1): 83%
